Data from article PMC10838953.

Legend:
PARP = settings: 786-O cells; 2.5-15 μM; 48 h
[1] = test system: tumor slices of clear cell renal carcinoma (786-O-luc xenograft); settings: 10 μM CX-4945, 5 μM AB668
AURKB = AURKB (Homo sapiens, UniProt Q96GD4); test: biochemical; settings: read-out: %Ctrl @ 2000nM
BRAF = BRAF (Homo sapiens, UniProt P15056); test: biochemical; settings: read-out: %Ctrl @ 2000nM
BRSK2 = BRSK2 (Homo sapiens, UniProt Q8IWQ3); test: biochemical; settings: read-out: %Ctrl @ 2000nM
CDKL2 = CDKL2 (Homo sapiens, UniProt Q92772); test: biochemical; settings: read-out: %Ctrl @ 2000nM
CDKL3 = CDKL3 (Homo sapiens, UniProt Q8IVW4); test: biochemical; settings: read-out: %Ctrl @ 2000nM
CSF1R = CSF1R (Homo sapiens, UniProt P07333); test: biochemical; settings: read-out: %Ctrl @ 2000nM
CSNK1A1L = CSNK1A1L (Homo sapiens, UniProt Q8N752); test: biochemical; settings: read-out: %Ctrl @ 2000nM
CSNK1G1 = CSNK1G1 (Homo sapiens, UniProt Q9HCP0); test: biochemical; settings: read-out: %Ctrl @ 2000nM
DCAMKL2 = DCAMKL2 (Homo sapiens, UniProt Q8N568); test: biochemical; settings: read-out: %Ctrl @ 2000nM
DDR2 = DDR2 (Homo sapiens, UniProt Q16832); test: biochemical; settings: read-out: %Ctrl @ 2000nM
DMPK = DMPK (Homo sapiens, UniProt Q09013); test: biochemical; settings: read-out: %Ctrl @ 2000nM
[2] = target: EGFR(L747-S752del, P753S) (Homo sapiens, UniProt P00533, DEL747-752/P753S); test: biochemical; settings: read-out: %Ctrl @ 2000nM
EGFR(L858R) = EGFR(L858R) (Homo sapiens, UniProt P00533, L858R); test: biochemical; settings: read-out: %Ctrl @ 2000nM
EGFR(L858R,T790M) = EGFR(L858R,T790M) (Homo sapiens, UniProt P00533, L858R/T790M); test: biochemical; settings: read-out: %Ctrl @ 2000nM
EGFR(T790M) = EGFR(T790M) (Homo sapiens, UniProt P00533, T790M); test: biochemical; settings: read-out: %Ctrl @ 2000nM
EPHB1 = EPHB1 (Homo sapiens, UniProt P54762); test: biochemical; settings: read-out: %Ctrl @ 2000nM
EPHB2 = EPHB2 (Homo sapiens, UniProt P29323); test: biochemical; settings: read-out: %Ctrl @ 2000nM
ERBB2 = ERBB2 (Homo sapiens, UniProt P04626); test: biochemical; settings: read-out: %Ctrl @ 2000nM
ERBB4 = ERBB4 (Homo sapiens, UniProt Q15303); test: biochemical; settings: read-out: %Ctrl @ 2000nM
FES = FES (Homo sapiens, UniProt P07332); test: biochemical; settings: read-out: %Ctrl @ 2000nM
FGFR1 = FGFR1 (Homo sapiens, UniProt P11362); test: biochemical; settings: read-out: %Ctrl @ 2000nM
FLT3(N841I) = FLT3(N841I) (Homo sapiens, UniProt P36888, N841I); test: biochemical; settings: read-out: %Ctrl @ 2000nM
GRK7 = GRK7 (Homo sapiens, UniProt Q8WTQ7); test: biochemical; settings: read-out: %Ctrl @ 2000nM
LATS1 = LATS1 (Homo sapiens, UniProt O95835); test: biochemical; settings: read-out: %Ctrl @ 2000nM
LCK = LCK (Homo sapiens, UniProt P06239); test: biochemical; settings: read-out: %Ctrl @ 2000nM
MAP3K1 = MAP3K1 (Homo sapiens, UniProt Q13233); test: biochemical; settings: read-out: %Ctrl @ 2000nM
MAP3K2 = MAP3K2 (Homo sapiens, UniProt Q9Y2U5); test: biochemical; settings: read-out: %Ctrl @ 2000nM
MEK6 = MEK6 (Homo sapiens, UniProt P52564); test: biochemical; settings: read-out: %Ctrl @ 2000nM
MKK7 = MKK7 (Homo sapiens, UniProt O14733); test: biochemical; settings: read-out: %Ctrl @ 2000nM
MST1R = MST1R (Homo sapiens, UniProt Q04912); test: biochemical; settings: read-out: %Ctrl @ 2000nM
NEK5 = NEK5 (Homo sapiens, UniProt Q6P3R8); test: biochemical; settings: read-out: %Ctrl @ 2000nM
PRKG2 = PRKG2 (Homo sapiens, UniProt Q13237); test: biochemical; settings: read-out: %Ctrl @ 2000nM
TAOK2 = TAOK2 (Homo sapiens, UniProt Q9UL54); test: biochemical; settings: read-out: %Ctrl @ 2000nM
TRKB = TRKB (Homo sapiens, UniProt Q16620); test: biochemical; settings: read-out: %Ctrl @ 2000nM
[3] = target: TYK2(JH1domain-catalytic) (Homo sapiens, UniProt P29597); test: biochemical; settings: read-out: %Ctrl @ 2000nM
ULK2 = ULK2 (Homo sapiens, UniProt Q8IYT8); test: biochemical; settings: read-out: %Ctrl @ 2000nM
WEE1 = WEE1 (Homo sapiens, UniProt P30291); test: biochemical; settings: read-out: %Ctrl @ 2000nM
WNK3 = WNK3 (Homo sapiens, UniProt Q9BYP7); test: biochemical; settings: read-out: %Ctrl @ 2000nM
YES = YES (Homo sapiens, UniProt P07947); test: biochemical; settings: read-out: %Ctrl @ 2000nM

Sequence of BRAF (P15056 whole entry): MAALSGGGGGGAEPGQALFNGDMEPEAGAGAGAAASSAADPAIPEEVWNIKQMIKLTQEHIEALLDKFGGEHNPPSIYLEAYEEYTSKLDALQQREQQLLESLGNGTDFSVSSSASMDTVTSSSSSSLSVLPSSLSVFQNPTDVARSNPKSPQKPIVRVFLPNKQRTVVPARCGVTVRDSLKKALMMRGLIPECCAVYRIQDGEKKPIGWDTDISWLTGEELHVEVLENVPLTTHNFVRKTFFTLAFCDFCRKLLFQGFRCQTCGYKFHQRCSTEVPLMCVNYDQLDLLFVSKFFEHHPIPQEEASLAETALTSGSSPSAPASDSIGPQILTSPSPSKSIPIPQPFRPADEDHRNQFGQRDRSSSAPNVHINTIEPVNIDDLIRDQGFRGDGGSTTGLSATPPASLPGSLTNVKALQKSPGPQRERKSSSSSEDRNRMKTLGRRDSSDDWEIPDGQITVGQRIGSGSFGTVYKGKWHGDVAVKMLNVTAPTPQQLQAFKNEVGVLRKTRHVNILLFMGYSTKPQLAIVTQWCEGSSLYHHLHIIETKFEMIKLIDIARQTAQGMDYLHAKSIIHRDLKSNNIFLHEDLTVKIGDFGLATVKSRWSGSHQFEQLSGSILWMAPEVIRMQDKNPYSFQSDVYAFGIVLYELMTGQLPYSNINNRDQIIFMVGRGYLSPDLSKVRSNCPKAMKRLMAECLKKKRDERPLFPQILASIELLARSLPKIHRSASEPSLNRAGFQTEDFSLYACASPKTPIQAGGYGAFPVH
Sequence of EGFR(T790M) (P00533 25-1210 T790M): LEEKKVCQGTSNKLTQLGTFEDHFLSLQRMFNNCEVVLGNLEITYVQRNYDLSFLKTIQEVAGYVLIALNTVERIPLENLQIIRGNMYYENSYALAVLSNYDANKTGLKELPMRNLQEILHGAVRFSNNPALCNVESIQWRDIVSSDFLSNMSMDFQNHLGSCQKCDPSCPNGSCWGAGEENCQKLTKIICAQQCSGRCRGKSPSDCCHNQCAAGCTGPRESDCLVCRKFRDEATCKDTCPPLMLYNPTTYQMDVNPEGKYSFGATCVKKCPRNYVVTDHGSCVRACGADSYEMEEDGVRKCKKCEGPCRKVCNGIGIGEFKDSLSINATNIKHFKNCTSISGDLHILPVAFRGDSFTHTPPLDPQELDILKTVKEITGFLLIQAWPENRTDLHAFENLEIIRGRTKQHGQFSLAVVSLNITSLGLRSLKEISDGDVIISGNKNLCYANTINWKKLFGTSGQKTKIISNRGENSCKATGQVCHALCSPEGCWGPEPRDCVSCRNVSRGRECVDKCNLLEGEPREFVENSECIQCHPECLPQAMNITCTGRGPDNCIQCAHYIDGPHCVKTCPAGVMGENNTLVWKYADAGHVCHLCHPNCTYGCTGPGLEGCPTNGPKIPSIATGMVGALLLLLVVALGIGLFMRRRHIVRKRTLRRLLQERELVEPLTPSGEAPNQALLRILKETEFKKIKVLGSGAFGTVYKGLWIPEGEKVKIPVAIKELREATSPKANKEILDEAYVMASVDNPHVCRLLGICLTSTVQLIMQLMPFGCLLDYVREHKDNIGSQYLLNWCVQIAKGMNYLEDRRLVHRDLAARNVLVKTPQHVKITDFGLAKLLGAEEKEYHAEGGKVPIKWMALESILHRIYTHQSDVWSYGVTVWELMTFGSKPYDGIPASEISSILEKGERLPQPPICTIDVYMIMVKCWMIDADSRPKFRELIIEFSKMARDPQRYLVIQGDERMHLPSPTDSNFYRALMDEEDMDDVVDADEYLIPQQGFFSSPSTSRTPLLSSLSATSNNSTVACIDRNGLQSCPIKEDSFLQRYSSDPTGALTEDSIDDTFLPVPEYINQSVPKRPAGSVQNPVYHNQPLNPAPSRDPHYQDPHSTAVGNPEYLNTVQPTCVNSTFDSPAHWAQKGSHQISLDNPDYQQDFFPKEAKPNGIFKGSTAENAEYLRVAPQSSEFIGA
Sequence of TAOK2 (Q9UL54 whole entry): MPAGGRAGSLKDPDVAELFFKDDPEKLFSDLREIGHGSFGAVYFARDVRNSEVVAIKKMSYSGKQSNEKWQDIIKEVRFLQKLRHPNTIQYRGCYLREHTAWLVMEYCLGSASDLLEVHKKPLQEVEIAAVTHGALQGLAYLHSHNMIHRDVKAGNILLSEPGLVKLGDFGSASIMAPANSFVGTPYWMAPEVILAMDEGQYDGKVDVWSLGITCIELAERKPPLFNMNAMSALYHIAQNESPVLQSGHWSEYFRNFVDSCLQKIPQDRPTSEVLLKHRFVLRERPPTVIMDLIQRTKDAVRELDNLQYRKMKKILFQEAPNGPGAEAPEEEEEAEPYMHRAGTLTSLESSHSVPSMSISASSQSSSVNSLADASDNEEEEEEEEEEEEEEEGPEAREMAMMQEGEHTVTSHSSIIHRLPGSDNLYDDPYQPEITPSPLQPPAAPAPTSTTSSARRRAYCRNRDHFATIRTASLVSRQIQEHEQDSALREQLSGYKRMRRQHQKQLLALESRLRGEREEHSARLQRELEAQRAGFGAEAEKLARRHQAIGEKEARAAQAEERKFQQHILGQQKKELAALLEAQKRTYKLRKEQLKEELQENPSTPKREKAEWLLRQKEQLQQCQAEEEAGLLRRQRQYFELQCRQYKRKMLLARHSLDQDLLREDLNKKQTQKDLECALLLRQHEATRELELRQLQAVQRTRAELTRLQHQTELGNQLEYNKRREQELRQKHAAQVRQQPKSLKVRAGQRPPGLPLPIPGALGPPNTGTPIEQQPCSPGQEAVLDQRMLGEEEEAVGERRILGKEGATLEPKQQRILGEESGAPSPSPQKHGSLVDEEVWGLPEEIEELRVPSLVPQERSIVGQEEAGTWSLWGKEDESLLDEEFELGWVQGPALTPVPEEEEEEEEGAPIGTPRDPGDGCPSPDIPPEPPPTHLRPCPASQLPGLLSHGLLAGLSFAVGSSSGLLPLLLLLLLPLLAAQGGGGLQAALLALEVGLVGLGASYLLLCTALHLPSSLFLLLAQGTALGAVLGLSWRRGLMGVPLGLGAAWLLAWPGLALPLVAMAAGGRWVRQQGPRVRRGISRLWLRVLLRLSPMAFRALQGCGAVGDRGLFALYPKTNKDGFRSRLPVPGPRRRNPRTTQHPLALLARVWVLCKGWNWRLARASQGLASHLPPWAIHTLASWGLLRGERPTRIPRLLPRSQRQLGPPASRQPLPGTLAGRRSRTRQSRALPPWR
Sequence of EPHB1 (P54762 18-984): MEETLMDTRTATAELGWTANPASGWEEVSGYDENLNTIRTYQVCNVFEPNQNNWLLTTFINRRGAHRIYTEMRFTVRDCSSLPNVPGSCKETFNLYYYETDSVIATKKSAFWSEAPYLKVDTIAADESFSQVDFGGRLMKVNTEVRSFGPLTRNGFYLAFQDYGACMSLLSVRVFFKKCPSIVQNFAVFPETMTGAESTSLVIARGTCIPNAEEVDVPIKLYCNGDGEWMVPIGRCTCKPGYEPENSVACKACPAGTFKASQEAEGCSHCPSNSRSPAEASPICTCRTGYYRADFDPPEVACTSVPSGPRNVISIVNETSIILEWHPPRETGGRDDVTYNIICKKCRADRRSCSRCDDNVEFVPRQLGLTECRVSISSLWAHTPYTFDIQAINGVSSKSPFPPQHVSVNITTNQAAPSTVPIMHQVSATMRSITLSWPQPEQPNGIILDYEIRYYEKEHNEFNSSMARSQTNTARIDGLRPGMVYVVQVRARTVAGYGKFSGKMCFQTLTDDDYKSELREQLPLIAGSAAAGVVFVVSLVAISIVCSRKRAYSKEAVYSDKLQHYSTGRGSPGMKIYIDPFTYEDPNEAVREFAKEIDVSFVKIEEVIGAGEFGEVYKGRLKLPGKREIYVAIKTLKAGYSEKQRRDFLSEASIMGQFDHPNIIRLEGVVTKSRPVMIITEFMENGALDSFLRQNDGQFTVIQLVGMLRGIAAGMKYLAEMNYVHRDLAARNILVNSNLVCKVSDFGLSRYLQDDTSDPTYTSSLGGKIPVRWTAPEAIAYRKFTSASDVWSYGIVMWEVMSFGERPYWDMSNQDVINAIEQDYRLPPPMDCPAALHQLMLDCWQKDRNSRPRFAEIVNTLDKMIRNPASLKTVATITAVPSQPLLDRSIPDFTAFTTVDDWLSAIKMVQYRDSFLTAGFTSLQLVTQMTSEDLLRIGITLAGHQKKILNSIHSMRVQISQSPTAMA
Sequence of EGFR(L747-S752del, P753S) (P00533 with tags, fused parts or gaps DEL747-752/P753S limits assumed): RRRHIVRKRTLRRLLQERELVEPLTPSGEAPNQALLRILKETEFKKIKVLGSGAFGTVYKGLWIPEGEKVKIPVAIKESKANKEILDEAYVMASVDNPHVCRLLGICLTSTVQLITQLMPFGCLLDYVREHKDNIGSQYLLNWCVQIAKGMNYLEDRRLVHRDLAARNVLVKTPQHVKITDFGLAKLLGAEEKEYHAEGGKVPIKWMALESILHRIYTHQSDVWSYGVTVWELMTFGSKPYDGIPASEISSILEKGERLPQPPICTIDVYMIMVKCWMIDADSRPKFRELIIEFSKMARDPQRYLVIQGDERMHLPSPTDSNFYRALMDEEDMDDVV
Sequence of GRK7 (Q8WTQ7 whole entry): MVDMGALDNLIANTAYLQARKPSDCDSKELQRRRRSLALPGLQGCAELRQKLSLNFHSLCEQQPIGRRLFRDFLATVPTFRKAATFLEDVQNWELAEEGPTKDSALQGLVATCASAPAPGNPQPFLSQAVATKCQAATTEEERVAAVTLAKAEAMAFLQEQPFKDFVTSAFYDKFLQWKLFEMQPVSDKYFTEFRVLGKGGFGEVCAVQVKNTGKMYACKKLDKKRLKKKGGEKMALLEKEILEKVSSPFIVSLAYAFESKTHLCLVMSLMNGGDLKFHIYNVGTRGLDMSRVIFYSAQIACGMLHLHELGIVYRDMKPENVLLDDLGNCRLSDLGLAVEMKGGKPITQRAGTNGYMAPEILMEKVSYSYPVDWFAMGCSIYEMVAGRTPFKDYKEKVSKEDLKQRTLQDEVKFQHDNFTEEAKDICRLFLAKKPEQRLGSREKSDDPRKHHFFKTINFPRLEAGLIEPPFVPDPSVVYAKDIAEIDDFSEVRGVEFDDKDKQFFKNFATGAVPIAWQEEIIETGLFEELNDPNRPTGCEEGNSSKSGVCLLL

For CC(C)COC(=O)c1[nH]c2ccc(F)cc2c1-c1cn(CC2CCN(CCNS(=O)(=O)c3ccc(CC(C)C)cc3)CC2)nn1 [AB668, isobutyl 5-fluoro-3-(1-((1-(2-((4-isobutylphenyl)sulfonamido)ethyl)piperidin-4-yl)methyl)-1H-1,2,3-triazol-4-yl)-1H-indole-2-carboxylate], the “Number of Hits S(1)” value (468 kinases) was 2, the “Number of Hits S(10)” value (468 kinases) was 3 and the “Number of Hits S(35)” value (468 kinases) was 4. For the same molecule, the “cleavage of PARP” value (PARP) was “cleavage of PARP”, the “cell viability of tumor slices” value [1] was “significantly reduced cell viability” and the remaining activity at 2 µM (AURKB) was 99%. It also gave a remaining activity at 2 µM (BRAF) of 100%, a remaining activity at 2 µM (BRSK2) of 79% and a remaining activity at 2 µM (CDKL2) of 84%. It also gave a remaining activity at 2 µM (CDKL3) of 88%, a remaining activity at 2 µM (CSF1R) of 100% and a remaining activity at 2 µM (CSNK1A1L) of 86%. The remaining activity at 2 µM (CSNK1G1) was 90%, the remaining activity at 2 µM (DCAMKL2) was 93% and the remaining activity at 2 µM (DDR2) was 94%. For the same molecule, the remaining activity at 2 µM (DMPK) was 90%, the remaining activity at 2 µM [2] was 98% and the remaining activity at 2 µM (EGFR(L858R)) was 96%. For the same molecule, the remaining activity at 2 µM (EGFR(L858R,T790M)) was 83%, the remaining activity at 2 µM (EGFR(T790M)) was 89% and the remaining activity at 2 µM (EPHB1) was 100%. It also gave a remaining activity at 2 µM (EPHB2) of 98%, a remaining activity at 2 µM (ERBB2) of 100% and a remaining activity at 2 µM (ERBB4) of 97%. The remaining activity at 2 µM (FES) was 91%, the remaining activity at 2 µM (FGFR1) was 81% and the remaining activity at 2 µM (FLT3(N841I)) was 95%. For the same molecule, the remaining activity at 2 µM (GRK7) was 97%, the remaining activity at 2 µM (LATS1) was 100% and the remaining activity at 2 µM (LCK) was 99%. It also gave a remaining activity at 2 µM (MAP3K1) of 91%, a remaining activity at 2 µM (MAP3K2) of 93% and a remaining activity at 2 µM (MEK6) of 83%. It also gave a remaining activity at 2 µM (MKK7) of 82%, a remaining activity at 2 µM (MST1R) of 97% and a remaining activity at 2 µM (NEK5) of 84%. For the same molecule, the remaining activity at 2 µM (PRKG2) was 97%, the remaining activity at 2 µM (TAOK2) was 100% and the remaining activity at 2 µM (TRKB) was 87%. For the same molecule, the remaining activity at 2 µM [3] was 85%, the remaining activity at 2 µM (ULK2) was 100% and the remaining activity at 2 µM (WEE1) was 96%. It also gave a remaining activity at 2 µM (WNK3) of 98% and a remaining activity at 2 µM (YES) of 100%.
